For test [1], the target named is T1, Caspase-1 (Homo sapiens, UniProt P29466).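 Further: Caspase-1 enzyme inhibition assay with a peptide substrate; in other assays of this panel Not Active means under 50% inhibition at 10 µM.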
T1 sequence (P29466 whole entry): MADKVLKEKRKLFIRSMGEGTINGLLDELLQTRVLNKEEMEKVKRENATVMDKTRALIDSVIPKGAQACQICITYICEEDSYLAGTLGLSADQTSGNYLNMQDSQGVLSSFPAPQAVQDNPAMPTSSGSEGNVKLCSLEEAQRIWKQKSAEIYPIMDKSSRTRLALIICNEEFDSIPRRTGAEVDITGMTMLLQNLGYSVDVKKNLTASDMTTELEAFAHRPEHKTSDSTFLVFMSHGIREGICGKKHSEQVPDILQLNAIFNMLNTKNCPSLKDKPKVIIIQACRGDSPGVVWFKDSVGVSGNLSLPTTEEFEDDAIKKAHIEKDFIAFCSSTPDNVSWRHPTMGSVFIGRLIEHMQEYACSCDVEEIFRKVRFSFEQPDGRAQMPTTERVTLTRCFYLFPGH
Details: species or system Escherichia coli.

For test [2], the target named is Prostaglandin G/H synthase 1 (Homo sapiens, UniProt P23219). In words: biochemical. It is filed as tissue-based, Platelet. Particulars: platelet.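 Further: inhibition of COX-1 enzyme activity, with arachidonic acid supplied as substrate; in other assays of this panel Not Active means under 50% inhibition at 10 µM.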
The target of test [3] is T2, B2 bradykinin receptor (Homo sapiens, UniProt P30411). Further: in other assays of this panel Not Active means under 50% inhibition at 10 µM.
T2 sequence (P30411 whole entry): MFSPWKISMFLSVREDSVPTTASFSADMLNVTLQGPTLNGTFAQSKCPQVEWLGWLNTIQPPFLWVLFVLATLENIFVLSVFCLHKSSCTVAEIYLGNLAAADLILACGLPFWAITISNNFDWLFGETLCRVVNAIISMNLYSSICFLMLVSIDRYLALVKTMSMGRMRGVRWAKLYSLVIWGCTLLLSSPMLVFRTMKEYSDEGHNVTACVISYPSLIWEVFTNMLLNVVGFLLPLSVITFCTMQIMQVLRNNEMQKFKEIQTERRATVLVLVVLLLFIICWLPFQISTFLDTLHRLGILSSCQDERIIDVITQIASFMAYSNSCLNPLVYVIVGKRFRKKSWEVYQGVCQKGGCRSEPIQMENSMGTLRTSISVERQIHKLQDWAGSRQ
It is filed as cell membranes, Membrane. Particulars: chem-1.

Test [4] deals with Matrix metalloproteinase-9 (Homo sapiens, UniProt P14780). It is filed as cell-based.
The target of test [5] is Carbonic anhydrase 2 (Homo sapiens, UniProt P00918). In words: DRUGMATRIX: Carbonic Anhydrase II enzyme inhibition (substrate: 4-Nitrophenyl acetate (4-NPA)). It is filed as tissue-based, Erythrocyte. The settings on record: erythrocyte; Not Active = under 50% inhibition at 10 µM.
Test [6] has as its target Acetylcholinesterase (Homo sapiens, UniProt P22303). In words: DRUGMATRIX: Acetylcholinesterase enzyme inhibition (substrate: acetylthiocholine). It is filed as cell-based, HEK293. Particulars: hek293; Not Active = under 50% inhibition at 10 µM.
Test [7] has as its target T3, 3-hydroxy-3-methylglutaryl-coenzyme A reductase (Homo sapiens, UniProt P04035).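 Further: enzyme inhibition assay of HMG-CoA reductase using radiolabeled [14C]HMG-CoA as substrate; in other assays of this panel Not Active means under 50% inhibition at 10 µM.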
T3 sequence (P04035 whole entry): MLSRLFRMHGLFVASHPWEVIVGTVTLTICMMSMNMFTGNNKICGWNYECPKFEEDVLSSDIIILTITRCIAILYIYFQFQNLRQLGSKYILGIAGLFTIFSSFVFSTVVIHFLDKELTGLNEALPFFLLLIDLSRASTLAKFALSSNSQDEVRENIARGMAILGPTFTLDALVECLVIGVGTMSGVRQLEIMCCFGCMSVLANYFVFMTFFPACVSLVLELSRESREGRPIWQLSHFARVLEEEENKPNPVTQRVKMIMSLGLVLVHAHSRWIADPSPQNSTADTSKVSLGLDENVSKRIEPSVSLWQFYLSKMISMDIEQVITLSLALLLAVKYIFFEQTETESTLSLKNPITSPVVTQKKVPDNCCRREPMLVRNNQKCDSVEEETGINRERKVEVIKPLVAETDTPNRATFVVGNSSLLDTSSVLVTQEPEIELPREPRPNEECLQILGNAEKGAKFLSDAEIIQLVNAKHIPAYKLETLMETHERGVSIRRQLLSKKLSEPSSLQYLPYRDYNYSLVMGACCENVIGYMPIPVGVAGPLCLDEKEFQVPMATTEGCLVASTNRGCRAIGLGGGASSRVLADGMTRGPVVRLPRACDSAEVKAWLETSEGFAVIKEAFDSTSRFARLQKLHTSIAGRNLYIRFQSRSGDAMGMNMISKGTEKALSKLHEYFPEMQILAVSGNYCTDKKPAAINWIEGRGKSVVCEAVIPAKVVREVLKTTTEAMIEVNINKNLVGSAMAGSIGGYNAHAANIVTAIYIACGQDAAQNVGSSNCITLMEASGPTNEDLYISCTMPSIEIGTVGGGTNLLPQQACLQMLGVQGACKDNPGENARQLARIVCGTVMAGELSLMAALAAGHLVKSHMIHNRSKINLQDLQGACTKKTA
Set-up: species or system Escherichia coli.

In test [8] the target is Mitogen-activated protein kinase 1 (Homo sapiens, UniProt P28482). Put plainly: DRUGMATRIX: Protein Serine/Threonine Kinase, ERK2 enzyme inhibition (substrate: Myelin Basic Protein). Set-up: species or system Escherichia coli. Particulars: Not Active = under 50% inhibition at 10 µM.
Test [9] deals with T4, Muscarinic acetylcholine receptor M4 (Homo sapiens, UniProt P08173).
T4 sequence (P08173 whole entry): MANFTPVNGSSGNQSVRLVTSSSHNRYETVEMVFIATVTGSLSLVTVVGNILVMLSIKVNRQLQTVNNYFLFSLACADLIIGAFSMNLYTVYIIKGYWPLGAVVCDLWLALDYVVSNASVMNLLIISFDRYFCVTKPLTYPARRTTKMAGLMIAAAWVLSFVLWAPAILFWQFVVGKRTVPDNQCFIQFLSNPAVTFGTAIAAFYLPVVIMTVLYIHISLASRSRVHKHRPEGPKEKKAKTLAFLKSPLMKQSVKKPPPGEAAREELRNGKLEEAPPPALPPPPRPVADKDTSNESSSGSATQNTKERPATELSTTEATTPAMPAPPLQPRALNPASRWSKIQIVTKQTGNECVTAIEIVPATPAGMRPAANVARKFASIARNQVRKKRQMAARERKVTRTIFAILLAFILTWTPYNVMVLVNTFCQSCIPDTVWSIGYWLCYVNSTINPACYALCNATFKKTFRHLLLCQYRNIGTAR
Format: cell membranes, CHO-K1, Membrane.

The nature of test [10]: DRUGMATRIX: Potassium Channel [KATP] radioligand binding (ligand: [3H] Glyburide). It is filed as cell membranes, Membrane. Particulars: hit-t15; Not Active = under 50% inhibition at 10 µM.
Test [11] in a line: DRUGMATRIX: Sigma2 radioligand binding (ligand: [3H] Ifenprodil). The settings on record: Not Active = under 50% inhibition at 10 µM. It is filed as cell membranes, Rattus norvegicus, Wistar, Brain, Membrane.
Test [12] concerns the target Melanocortin receptor 4 (Homo sapiens, UniProt P32245). It is filed as cell membranes, Membrane. The settings on record: hek293. Further: in other assays of this panel Not Active means under 50% inhibition at 10 µM.

Drawing on ChEMBL document CHEMBL1909046, “DrugMatrix in vitro pharmacology data”, this text covers IC50 and Ki for seven compounds.

Sequence of Acetylcholinesterase (P22303 whole entry): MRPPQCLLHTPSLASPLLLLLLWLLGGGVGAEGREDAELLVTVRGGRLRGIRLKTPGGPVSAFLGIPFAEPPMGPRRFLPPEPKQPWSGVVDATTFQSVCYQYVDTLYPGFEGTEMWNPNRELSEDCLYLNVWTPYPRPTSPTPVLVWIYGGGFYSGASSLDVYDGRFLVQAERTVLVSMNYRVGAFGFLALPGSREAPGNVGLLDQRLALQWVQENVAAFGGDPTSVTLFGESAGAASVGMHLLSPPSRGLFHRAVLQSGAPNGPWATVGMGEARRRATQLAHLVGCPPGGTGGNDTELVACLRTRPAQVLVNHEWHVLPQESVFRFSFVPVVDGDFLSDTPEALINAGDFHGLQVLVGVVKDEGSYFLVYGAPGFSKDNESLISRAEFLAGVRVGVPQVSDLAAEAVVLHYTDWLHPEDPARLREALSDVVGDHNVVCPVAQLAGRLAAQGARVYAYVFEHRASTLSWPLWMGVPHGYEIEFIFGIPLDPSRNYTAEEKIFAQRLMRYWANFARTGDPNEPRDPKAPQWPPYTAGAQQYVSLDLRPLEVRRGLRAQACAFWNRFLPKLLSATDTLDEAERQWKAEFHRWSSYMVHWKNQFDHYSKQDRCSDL
Sequence of Melanocortin receptor 4 (P32245 whole entry): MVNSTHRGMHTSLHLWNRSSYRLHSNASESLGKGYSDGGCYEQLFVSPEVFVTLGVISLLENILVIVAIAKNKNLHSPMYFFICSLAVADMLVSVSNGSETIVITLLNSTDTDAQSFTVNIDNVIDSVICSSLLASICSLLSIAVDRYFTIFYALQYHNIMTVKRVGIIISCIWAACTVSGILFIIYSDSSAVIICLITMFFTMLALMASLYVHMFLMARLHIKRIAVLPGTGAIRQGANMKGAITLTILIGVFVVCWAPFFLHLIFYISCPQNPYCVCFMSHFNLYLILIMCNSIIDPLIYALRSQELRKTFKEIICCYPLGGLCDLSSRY
Sequence of Matrix metalloproteinase-9 (P14780 whole entry): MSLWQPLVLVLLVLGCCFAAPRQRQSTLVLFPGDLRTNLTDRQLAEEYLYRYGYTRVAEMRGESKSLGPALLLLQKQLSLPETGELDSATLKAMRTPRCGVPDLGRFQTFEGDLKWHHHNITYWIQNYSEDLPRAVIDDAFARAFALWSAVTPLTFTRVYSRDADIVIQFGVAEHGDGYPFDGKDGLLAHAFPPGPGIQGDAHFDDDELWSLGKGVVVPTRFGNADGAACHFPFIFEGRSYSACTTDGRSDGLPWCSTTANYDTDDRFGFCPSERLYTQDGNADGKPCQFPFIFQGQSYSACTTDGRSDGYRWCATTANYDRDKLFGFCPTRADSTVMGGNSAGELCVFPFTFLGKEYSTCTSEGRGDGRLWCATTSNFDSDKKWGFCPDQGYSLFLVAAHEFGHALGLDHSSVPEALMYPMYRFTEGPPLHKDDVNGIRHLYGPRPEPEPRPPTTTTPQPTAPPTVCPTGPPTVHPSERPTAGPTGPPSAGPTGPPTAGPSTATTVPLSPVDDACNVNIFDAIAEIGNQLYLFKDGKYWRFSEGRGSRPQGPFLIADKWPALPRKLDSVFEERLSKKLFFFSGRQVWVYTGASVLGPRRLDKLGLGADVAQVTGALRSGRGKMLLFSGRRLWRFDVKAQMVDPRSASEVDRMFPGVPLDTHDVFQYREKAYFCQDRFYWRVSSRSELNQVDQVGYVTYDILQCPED
Sequence of Mitogen-activated protein kinase 1 (P28482 whole entry): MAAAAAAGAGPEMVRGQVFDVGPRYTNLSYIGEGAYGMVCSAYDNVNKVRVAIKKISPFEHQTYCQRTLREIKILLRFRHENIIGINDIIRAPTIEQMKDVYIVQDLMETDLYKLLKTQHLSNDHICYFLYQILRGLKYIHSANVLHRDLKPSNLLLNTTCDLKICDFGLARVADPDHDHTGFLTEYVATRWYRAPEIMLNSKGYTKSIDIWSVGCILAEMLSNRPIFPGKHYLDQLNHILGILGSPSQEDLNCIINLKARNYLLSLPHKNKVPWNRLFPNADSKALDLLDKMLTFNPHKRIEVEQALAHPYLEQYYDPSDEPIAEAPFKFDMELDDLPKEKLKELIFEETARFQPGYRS
Sequence of Prostaglandin G/H synthase 1 (P23219 whole entry): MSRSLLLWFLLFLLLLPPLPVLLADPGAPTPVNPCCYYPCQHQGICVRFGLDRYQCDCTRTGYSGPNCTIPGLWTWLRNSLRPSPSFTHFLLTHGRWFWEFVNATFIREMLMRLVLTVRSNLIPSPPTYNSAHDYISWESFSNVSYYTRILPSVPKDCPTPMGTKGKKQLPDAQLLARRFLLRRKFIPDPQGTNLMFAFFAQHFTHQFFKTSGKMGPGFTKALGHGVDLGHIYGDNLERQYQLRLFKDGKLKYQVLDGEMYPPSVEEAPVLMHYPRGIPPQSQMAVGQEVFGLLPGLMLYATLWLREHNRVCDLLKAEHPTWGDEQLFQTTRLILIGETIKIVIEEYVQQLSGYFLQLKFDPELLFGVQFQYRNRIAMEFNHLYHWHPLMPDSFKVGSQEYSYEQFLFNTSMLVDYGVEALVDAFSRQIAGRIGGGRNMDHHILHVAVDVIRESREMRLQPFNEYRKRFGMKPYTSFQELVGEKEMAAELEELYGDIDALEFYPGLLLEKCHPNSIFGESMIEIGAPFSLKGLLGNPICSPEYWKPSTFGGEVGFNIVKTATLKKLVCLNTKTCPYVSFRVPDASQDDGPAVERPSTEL

For `COc1ccc(CCN2CCC(Nc3nc4ccccc4n3Cc3ccc(F)cc3)CC2)cc1` [ASTEMIZOLE], the IC50 result in test [1], in test [2], in test [3], in test [4], in [5] and in [6] was “Not Active” in each case. Also, the IC50 result in [7] was “Not Active”; in test [8], “Not Active”; in test [9] (read-out: IC50), 1860 nM. In test [9] (read-out: Ki), the inhibitory constant (Ki) was determined as 259 nM.
With `NNc1ccccc1` [PHENYLHYDRAZINE], the IC50 result in test [10], in [1], in test [2], in test [11], in [3] and in test [12] was “Not Active” in each case. Further, the half-inhibitory concentration (IC50) result in [4], in test [5], in test [6], in [7], in test [8] and in test [9] (cho-k1) was “Not Active” in each case. Further, the inhibition constant (Ki) result in test [10] and in [11] was “Not Active” each time.
Turning to `O=[N+]([O-])c1cc([As](=O)(O)O)ccc1O` [ROXARSONE], the IC50 entry in test [10], in test [1], in [2], in test [11], in test [3] and in test [12] was “Not Active” each time. Further, the concentration for half-maximal inhibition (IC50) entry in test [4], in [5], in test [6], in test [7], in test [8] and in test [9] (cho-k1) was “Not Active” in each case. The inhibition constant (Ki) result in [10], in test [1], in test [2], in test [11], in test [3] and in test [12] was “Not Active” in each case. In addition, the Ki result in test [4], in [5], in test [6], in [7], in test [8] and in test [9] (cho-k1) was “Not Active” throughout.
For `CSc1ccc2c(c1)N(CCC1CCCCN1C)c1ccccc1S2` (stereo not given) [THIORIDAZINE], the IC50 entry in test [1], in test [2], in test [3], in test [12], in test [4] and in test [5] was “Not Active” each time. Also, the IC50 result in test [6], in [7] and in test [8] was “Not Active” each time.
For the compound `COc1cccc(C2(O)CCCCC2CN(C)C)c1` (stereo not given) [TRAMADOL], the IC50 result in [1], in [2], in test [3], in test [12], in test [4] and in test [5] was “Not Active” throughout. Moreover, the 50% inhibitory concentration (IC50) result in [6], in test [7], in [8] and in test [9] (cho-k1) was “Not Active” throughout.
For `COc1ccc(C(CN(C)C)C2(O)CCCCC2)cc1` (stereo not given) [VENLAFAXINE], the half-inhibitory concentration (IC50) result in test [10], in [1], in test [2], in test [11], in test [3] and in test [12] was “Not Active” throughout. The concentration for half-maximal inhibition (IC50) entry in test [4], in test [5], in test [6], in [7], in test [8] and in [9] (cho-k1) was “Not Active” in each case. Besides, the inhibitory constant (Ki) entry in test [10] and in [11] was “Not Active” throughout.
Regarding IVERMECTIN, the IC50 entry in test [10], in test [1], in test [2], in test [11], in test [3] and in test [12] was “Not Active” in each case. Moreover, the half-maximal inhibitory concentration (IC50) entry in test [4], in test [5], in [6], in test [7], in [8] and in [9] (cho-k1) was “Not Active” each time. Further, the inhibition constant Ki result in test [10], in test [1], in [2], in [11], in test [3] and in [12] was “Not Active” throughout. Besides, the Ki result in test [4], in test [5], in test [6], in [7], in test [8] and in test [9] (cho-k1) was “Not Active” throughout.

What is called IC50 is the concentration that inhibits the measured activity by half. Broadly, the Ki is a measure of affinity in units of concentration, obtained from inhibition or displacement.
